According to patent US8551921B2, “Method for determining the toxicity of an environmental or chemical sample” (priority 2000, dated 2013):
“And” between values parts separate entries of the source, which are not always exact repeats. Equal entries are not always repeated. Structures can show the parent of a compound that is named as a salt.

Assays:
[1] = system: Aeromonas hydriphila HG3 (RV 5.1); conditions: Microbial Toxic Concentration; incubation time 16 h
Procedure: (§1) • dispense 150 μl of growth medium with indicator in each well • add a concentration gradient of the chemical to be tested to rows B-H in a MARA plate (i.e. an indicator device according to the present invention) • incubate for 16 h • read absorbance values; and • analyse with software.
(§2) Microbial responses to different chemicals was estimated by kinetic measurements of their growth using the Labsystem automated IEMS reader. A computer software that could monitor incubation temperatures, reading intervals, and automatically transfer OD data to a computer was developed. A growth medium containing 0.05% peptone, 0.011% bromothymol blue (BTB), 1% sodium chloride and 0.3% glucose was added to all wells. The glucose acts as a carbon source, and during growth the microorganism will break down the glucose and produce acids, that will turn the initially blue indicator to yellow. Each microplate contains 12 columns and 8 rows, and thus in each plate, 11 lyophilized microbial strains were used (one for each column, the 12th column was used as negative control). […] In order to avoid drying out of the plates during the incubation, one drop of sterile mineral oil was added to each well. The plate was then incubated in the IEMS spectrophotometer and the absorbance value from each well was measured every second hour during 48 h.
(§3) The overall toxicity of the chemical compound can be described either as the mean of all 11 MTC values (shown in column 12), or as the minimum value for all 11 microbial strains used in the assay (marked with bold in the table).

[2] = system: JG1 (strain of marine origin); conditions: Microbial Toxic Concentration; incubation time 16 h
Procedure: as §1, §2, §3

[3] = system: JG2 (strain of marine origin); conditions: Microbial Toxic Concentration; incubation time 16 h
Procedure: as §1, §2, §3

[4] = system: JG4 (strain of marine origin); conditions: Microbial Toxic Concentration; incubation time 16 h
Procedure: as §1, §2, §3

ObanF = conditions: Microbial Toxic Concentration; incubation time 16 h
Procedure: as §1, §2, §3

[5] = system: Saccaromyces ceriviciae (bakers yeast); conditions: Microbial Toxic Concentration; incubation time 16 h
Procedure: as §1, §2, §3

[6] = system: JG3 (strain of marine origin); test: MARA indicator device toxic fingerprint, microorganism no. 3; conditions: Microbial Toxic Concentration; incubation time 16 h
Procedure: as §1, §2, §3

[7] = system: β-proteobacterium A22 (Kalmar 200); test: MARA indicator device toxic fingerprint, microorganism no. 5; conditions: Microbial Toxic Concentration; incubation time 16 h
Procedure: as §1, §2, §3

E. coli MZ 480 = test: MARA indicator device toxic fingerprint, microorganism no. 8; conditions: Microbial Toxic Concentration; incubation time 16 h
Procedure: as §1, §2, §3

[8] = system: Staphylococcus epidermidis (Karin12); test: MARA indicator device toxic fingerprint, microorganism no. 11; conditions: Microbial Toxic Concentration; incubation time 16 h
Procedure: as §1, §2, §3

[9] = system: 11 different microbial strains; conditions: for Inhibitory concentrations by method: MARA MTCmin: MTC value of the strain showing the highest sensitivity; for Inhibitory concentrations by method: MARA MTCmean: mean MTC for the 11 microbial strains; for Toxic fingerprint: MTC value, Mean: mean of all 11 MTC values
Procedure: as §1, §2, §3
Concentrations are given in mg/ml.

Daphnia = conditions: IC50-values, established assay; cited from earlier work
E. coli = conditions: IC50-values, established assay; cited from earlier work
[10] = system: Photobacterium phosphoreum; conditions: IC50-values, established assay; cited from earlier work
microorganism no. 7 = test: MARA indicator device toxic fingerprint, microorganism no. 7; conditions: Microbial Toxic Concentration; incubation time 16 h
Procedure: as §1, §2, §3

Compound	Toxic fingerprint: MTC value for microorganism no. 6 [1]	Toxic fingerprint: MTC value for microorganism no. 1 [2]	Toxic fingerprint: MTC value for microorganism no. 2 [3]	Toxic fingerprint: MTC value for microorganism no. 4 [4]	Toxic fingerprint: MTC value for microorganism no. 9 (ObanF)	Toxic fingerprint: MTC value for microorganism no. 10 [5]	Toxic fingerprint: MTC value for microorganism no. 3 [6]	Toxic fingerprint: MTC value for microorganism no. 5 [7]	Toxic fingerprint: MTC value for microorganism no. 8 (E. coli MZ 480)	Toxic fingerprint: MTC value for microorganism no. 11 [8]	Inhibitory concentrations by method: MARA MTCmin [9] [mg/mL]	Inhibitory concentrations by method: MARA MTCmean [9] [mg/mL]	Toxic fingerprint: MTC value, Mean [9]	Inhibitory concentrations by method: Daphnia (Daphnia) [mg/mL]	Inhibitory concentrations by method: E. coli (E. coli) [mg/mL]	Inhibitory concentrations by method: Microtox [10] [mg/mL]	Toxic fingerprint: MTC value for microorganism no. 7 (microorganism no. 7)
O=S(=O)([O-])[O-].[Li+].[Li+] [Lithium Sulphate]	10.600 and 8.490	3.700 and 4.780	6.300 and 7.170	4.590 and 7.950	23.400 and 17.500	2.650 and 3.570	12.200 and 12.700	14.500 and 10.000	41.800 and 25.400	22.400 and 15.300	3.11	11.330	9.960 and 12.700	0.033	67.764	25.763	
COc1ccc(CCN(C)CCCC(C#N)(c2ccc(OC)c(OC)c2)C(C)C)cc1OC (stereo not drawn) [Verapamil HCl]	1.090	0.326	0.247	3.100	0.510	0.877	0.128	0.591	0.360	0.371	0.360	0.811	0.811	0.055	0.834	0.438	2.950
Kinidin sulphate	0.099 and 0.141	0.108 and 0.102	0.053 and 0.076	0.243 and 0.233	0.254 and 0.329	0.091 and 0.072	0.113 and 0.104			0.088 and 0.085	0.087	0.148	0.150 and 0.145	0.062	1.009	0.092	0.138 and 0.275
Oc1c(Cl)c(Cl)c(Cl)c(Cl)c1Cl [Penta Chloro Phenol]	0.003 and 0.006	0.006 and 0.004	0.001	0.009 and 0.010	0.004 and 0.003			0.007 and 0.004	0.005 and 0.006	0.001	0.001	0.005	0.004 and 0.005	0.001	0.010	0.001	0.005 and 0.007
